Data on 11 compounds can be found in ChEMBL document CHEMBL1129019, “CCK-4 restricted analogues containing a 3-oxoindolizidine skeleton” (Bioorg Med Chem Lett, 1996).

The target in assay [1] is T1, Cholecystokinin receptor type A (Rattus norvegicus, UniProt P30551).
T1 sequence (P30551 whole entry): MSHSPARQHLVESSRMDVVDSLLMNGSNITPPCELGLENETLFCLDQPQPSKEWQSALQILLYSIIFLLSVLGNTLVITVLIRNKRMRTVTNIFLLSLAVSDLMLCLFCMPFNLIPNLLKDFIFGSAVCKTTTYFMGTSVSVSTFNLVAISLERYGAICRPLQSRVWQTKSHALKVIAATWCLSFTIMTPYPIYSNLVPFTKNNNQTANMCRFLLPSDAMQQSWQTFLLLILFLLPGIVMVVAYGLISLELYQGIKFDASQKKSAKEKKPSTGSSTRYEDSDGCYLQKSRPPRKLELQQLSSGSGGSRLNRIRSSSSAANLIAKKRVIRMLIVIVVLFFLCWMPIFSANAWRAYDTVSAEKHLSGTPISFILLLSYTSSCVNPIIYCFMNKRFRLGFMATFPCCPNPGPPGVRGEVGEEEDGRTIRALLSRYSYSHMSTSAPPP
Briefly: Binding of [3H]propionyl-CCK-8 to Cholecystokinin type A receptor from rat pancreas.

Assay [2] has as its target T2, Gastrin/cholecystokinin type B receptor (Rattus norvegicus, UniProt P30553).
T2 sequence (P30553 whole entry): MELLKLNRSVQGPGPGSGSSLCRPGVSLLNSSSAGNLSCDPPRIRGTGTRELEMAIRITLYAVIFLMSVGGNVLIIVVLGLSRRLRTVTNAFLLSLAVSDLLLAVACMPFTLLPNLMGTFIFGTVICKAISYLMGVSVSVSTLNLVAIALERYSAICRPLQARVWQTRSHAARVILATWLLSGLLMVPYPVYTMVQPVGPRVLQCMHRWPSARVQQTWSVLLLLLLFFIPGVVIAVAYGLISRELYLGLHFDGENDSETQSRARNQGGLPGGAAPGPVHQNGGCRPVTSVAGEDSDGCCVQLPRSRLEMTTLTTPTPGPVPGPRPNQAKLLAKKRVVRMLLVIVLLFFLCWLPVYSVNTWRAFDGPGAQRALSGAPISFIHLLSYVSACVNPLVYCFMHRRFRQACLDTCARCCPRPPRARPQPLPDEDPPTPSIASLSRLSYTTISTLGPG
Briefly: Binding of [3H]propionyl-CCK-8 to Cholecystokinin type B receptor from rat cerebral cortex. The format is tissue-based.

Broadly, the IC50 is the concentration that gives 50% inhibition. Low readings indicate higher potency, high ones lower potency. As to `COC(=O)[C@@]1(Cc2ccccc2)C[C@@H]2[C@@H](NC(=O)[C@@H](Cc3c[nH]c4ccccc34)NC(=O)OC(C)(C)C)CCCN2C1=O`, the half-maximal inhibitory concentration (IC50) in assay [1] and in assay [2] was > 10000 nM throughout.

For `COC(=O)[C@]1(Cc2ccccc2)C[C@@H]2[C@@H](NC(=O)[C@@H](Cc3c[nH]c4ccccc34)NC(=O)C34CC5CC(CC(C5)C3)C4)CCCN2C1=O`, the IC50 in assay [1] is > 10000 nM; in assay [2], 220 nM.

`COC(=O)[C@]1(Cc2ccccc2)C[C@H]2[C@H](NC(=O)[C@H](Cc3c[nH]c4ccccc34)NC(=O)OC(C)(C)C)CCCN2C1=O`: the concentration for half-maximal inhibition (IC50) in assay [1] and in assay [2] was > 10000 nM throughout.

Take `CC(C)(C)OC(=O)N[C@@H](Cc1c[nH]c2ccccc12)C(=O)N[C@H]1CCCN2C(=O)[C@@](Cc3ccccc3)(C(N)=O)C[C@H]12`: the IC50 in assay [1] was 1020 nM; in assay [2] it was > 10000 nM.

For the compound `COC(=O)[C@@]1(Cc2ccccc2)C[C@H]2[C@H](NC(=O)[C@@H](Cc3c[nH]c4ccccc34)NC(=O)OC(C)(C)C)CCCN2C1=O`, the concentration for half-maximal inhibition (IC50) in assay [1] and in assay [2] was > 10000 nM in each case.

`COC(=O)[C@]1(Cc2ccccc2)C[C@@H]2[C@@H](NC(=O)[C@@H](Cc3c[nH]c4ccccc34)NC(=O)OC(C)(C)C)CCCN2C1=O`: the IC50 was > 10000 nM in assay [1] and 3720 nM in assay [2].

For `CC(C)(C)OC(=O)N[C@H](Cc1c[nH]c2ccccc12)C(=O)N[C@H]1CCCN2C(=O)[C@](Cc3ccccc3)(C(N)=O)C[C@H]12`, the values for the IC50 in assay [1] and in assay [2] were > 10000 nM and 820 nM, respectively.

Consider `COC(=O)[C@@]1(Cc2ccccc2)C[C@@H]2[C@@H](NC(=O)[C@H](Cc3c[nH]c4ccccc34)NC(=O)OC(C)(C)C)CCCN2C1=O`, for which the IC50 is 2350 nM in assay [1] and > 10000 nM in assay [2].

For the compound `CC(C)(C)OC(=O)N[C@@H](Cc1c[nH]c2ccccc12)C(=O)N[C@H]1CCCN2C(=O)[C@](Cc3ccccc3)(C(N)=O)C[C@H]12`, the IC50 in assay [1] was > 10000 nM; in assay [2], 3530 nM.

As to `COC(=O)[C@@]1(Cc2ccccc2)C[C@H]2[C@H](NC(=O)[C@@H](Cc3c[nH]c4ccccc34)NC(=O)C34CC5CC(CC(C5)C3)C4)CCCN2C1=O`, the IC50 in assay [1] was 980 nM; in assay [2], 2190 nM.

Consider `CC1(C)[C@H]2CC[C@@]1(C)[C@H](OC(=O)N[C@](C)(Cc1c[nH]c3ccccc13)C(=O)NC[C@H](NC(=O)CCC(=O)O)c1ccccc1)C2`, for which the IC50 in assay [1] was 1120 nM; in assay [2], 9 nM.
